The assay concerns the target GLP-1R (Homo sapiens, UniProt P43220). Briefly: GLP-1R Activation - cAMP Assay. The settings on record: cAMP increase in CHO cells stably expressing GLP-1R; each compound run on one of the two cAMP assays (Assay 1 or Assay 2, not specified). The assay is classed as cell-based. The method in brief:
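CHO cells stably expressing GLP-1R, plated at 1,000 cells/well overnight, then equilibrated 1 h in HBSS with 20 mM Hepes and 0.1% BSA. Agonist added as 10-point dose response for 30 min at 37 °C. cAMP measured by HTRF (Cisbio Gs Dynamic kit); EC50 from sigmoidal fit.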

The source of these data is patent US12570642B2, “GLP-IR modulating compounds” (Gilead Sciences, Inc., priority 2021, dated 2026).

GLP-1R, sequence (P43220 24-463): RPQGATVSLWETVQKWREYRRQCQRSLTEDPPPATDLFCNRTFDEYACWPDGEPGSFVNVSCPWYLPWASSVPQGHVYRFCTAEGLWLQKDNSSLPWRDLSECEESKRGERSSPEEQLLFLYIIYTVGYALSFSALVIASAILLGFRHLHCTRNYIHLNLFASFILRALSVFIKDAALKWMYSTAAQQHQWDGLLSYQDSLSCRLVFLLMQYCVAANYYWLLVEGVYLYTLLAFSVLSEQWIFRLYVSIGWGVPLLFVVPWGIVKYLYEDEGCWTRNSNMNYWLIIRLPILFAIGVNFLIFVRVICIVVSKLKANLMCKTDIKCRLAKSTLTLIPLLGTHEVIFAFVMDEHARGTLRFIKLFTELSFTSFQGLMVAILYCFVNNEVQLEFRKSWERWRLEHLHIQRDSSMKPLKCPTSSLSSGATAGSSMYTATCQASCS

Turning to `Cn1cc(-c2ccc(COc3cccc(-c4cc(F)c(Cc5nc6ccc(C(=O)O)cc6n5[C@@H]5COCC5(C)C)cc4F)n3)c(F)c2)nn1` [Example 442, (S)-2-(2,5-difluoro-4-(6-((2-fluoro-4-(1-methyl-1H-1,2,3-triazol-4-yl)benzyl)oxy)pyridin-2-yl)benzyl)-1-(4,4-dimethyltetrahydrofuran-3-yl)-1H-benzo[d]imidazole-6-carboxylic acid], the midpoint of the response, the EC50, lay at 0.042 nM. Consider `COCCn1c(Cc2cc(F)c(-c3cccc(OCc4ccc(C#N)cc4)n3)cc2F)nc2ccc(C(=O)O)cc21` [Example 511, 2-(4-(6-((4-cyanobenzyl)oxy)pyridin-2-yl)-2,5-difluorobenzyl)-1-(2-methoxyethyl)-1H-benzo[d]imidazole-6-carboxylic acid], for which the response was half-maximal at 0.588 nM (EC50).

As for `N#Cc1ccc(COc2cccc(-c3cc(F)c(Cc4nc5ccc(C(=O)O)cc5n4[C@@H]4COC[C@@H]4COC(F)F)cc3F)n2)c(F)c1` [Example 185, 2-(4-(6-((4-cyano-2-fluorobenzyl)oxy)pyridin-2-yl)-2,5-difluorobenzyl)-1-((3S,4R)-4-((difluoromethoxy)methyl)tetrahydrofuran-3-yl)-1H-benzo[d]imidazole-6-carboxylic Acid], the EC50 – broadly, the concentration giving half of the maximal effect – was found to be 0.594 nM. Molecule `CC1(C)COC[C@H]1n1c(Cc2cc(F)c(-c3cccc(OCc4ccccc4)n3)cc2F)nc2ccc(C(=O)O)cc21` [Example 363, (S)-2-(4-(6-(benzyloxy)pyridin-2-yl)-2,5-difluorobenzyl)-1-(4,4-dimethyltetrahydrofuran-3-yl)-1H-benzo[d]imidazole-6-carboxylic acid] displayed a concentration giving a half-maximal response (EC50) of 0.369 nM.

In turn, `CC1(C)COC[C@H]1n1c(Cc2cc(F)c(-c3cccc(OCc4ccc(C#N)cc4)n3)cc2F)nc2ccc(C(=O)O)nc21` [Example 440, (S)-2-(4-(6-((4-cyanobenzyl)oxy)pyridin-2-yl)-2,5-difluorobenzyl)-3-(4,4-dimethyltetrahydrofuran-3-yl)-3H-imidazo[4,5-b]pyridine-5-carboxylic acid] registered an EC50 of 0.956 nM.

For `CC1(C)COC[C@H]1n1c(Cc2c(F)cc(-c3ccc(Cl)c(OCc4ccc(C#N)cc4F)n3)c(F)c2F)nc2ccc(C(=O)O)cc21` [Example 416, (S)-2-(4-(5-chloro-6-((4-cyano-2-fluorobenzyl)oxy)pyridin-2-yl)-2,3,6-trifluorobenzyl)-1-(4,4-dimethyltetrahydrofuran-3-yl)-1H-benzo[d]imidazole-6-carboxylic acid], the concentration giving a half-maximal response (EC50) worked out at 0.235 nM. Take `CC1(C)COC[C@H]1n1c(Cc2cc(F)c(-c3ccc(Cl)c(OCc4ccc(C#N)cc4F)n3)cc2F)nc2ccc(C(=O)O)cc21` [Example 434, (S)-2-(4-(5-chloro-6-((4-cyano-2-fluorobenzyl)oxy)pyridin-2-yl)-2,5-difluorobenzyl)-1-(4,4-dimethyltetrahydrofuran-3-yl)-1H-benzo[d]imidazole-6-carboxylic acid]: the EC50 was determined as 0.058 nM.

In the case of `CC1(C)COC[C@H]1n1c(Cc2cc(F)c(-c3cccc(OCc4ccc(F)c(F)c4F)n3)cc2F)nc2ccc(C(=O)O)cc21` [Example 451, (S)-2-(2,5-difluoro-4-(6-((2,3,4-trifluorobenzyl)oxy)pyridin-2-yl)benzyl)-1-(4,4-dimethyltetrahydrofuran-3-yl)-1H-benzo[d]imidazole-6-carboxylic acid], the EC50 was 0.621 nM. Against the preceding molecule, the EC50 is about 11-fold higher. The molecule `COCCn1c(Cc2cc(F)c(-c3cccc(OCc4ccc(-n5ccnc5)nc4)n3)cc2F)nc2ccc(C(=O)O)cc21` [Example 95, 2-(4-(6-((6-(1H-imidazol-1-yl)pyridin-3-yl)methoxy)pyridin-2-yl)-2,5-difluorobenzyl)-1-(2-methoxyethyl)-1H-benzo[d]imidazole-6-carboxylic Acid] yielded a 50% effective concentration (EC50) of 0.97 nM. As to `CC1(C)COC[C@H]1n1c(Cc2ccc(-c3ccc(F)c(OCc4ccc(Cl)cc4F)n3)cc2F)nc2ccc(C(=O)O)cc21` [Example 332, (S)-2-(4-(6-((4-chloro-2-fluorobenzyl)oxy)-5-fluoropyridin-2-yl)-2-fluorobenzyl)-1-(4,4-dimethyltetrahydrofuran-3-yl)-1H-benzo[d]imidazole-6-carboxylic acid], the EC50 amounted to 0.159 nM.

Molecule `Cc1cc(Cc2nc3ccc(C(=O)O)cc3n2[C@@H]2COCC2(C)C)c(Cl)cc1-c1cccc(OCc2ccc(C#N)cc2)n1` [Example 134, (S)-2-(2-chloro-4-(6-((4-cyanobenzyl)oxy)pyridin-2-yl)-5-methylbenzyl)-1-(4,4-dimethyltetrahydrofuran-3-yl)-1H-benzo[d]imidazole-6-carboxylic Acid] came in with an EC50 of 0.077 nM. Turning to `CC1(C)COC[C@H]1n1c(Cc2ccc(-c3cccc(OCc4ccc(C#N)cc4)n3)cc2F)nc2ccc(C(=O)O)cc21` [Example 373, (S)-2-(4-(6-((4-cyanobenzyl)oxy)pyridin-2-yl)-2-fluorobenzyl)-1-(4,4-dimethyltetrahydrofuran-3-yl)-1H-benzo[d]imidazole-6-carboxylic acid], the EC50 was determined as 0.294 nM.

Take `CC1(C)COC[C@H]1n1c(Cc2c(F)cc(-c3ccc(F)c(OCc4ccc(Cl)cc4)n3)c(F)c2F)nc2c(F)cc(C(=O)O)cc21` [Example 310, (S)-2-(4-(6-((4-chlorobenzyl)oxy)-5-fluoropyridin-2-yl)-2,3,6-trifluorobenzyl)-1-(4,4-dimethyltetrahydrofuran-3-yl)-4-fluoro-1H-benzo[d]imidazole-6-carboxylic acid]: a half-maximal response (EC50) required 0.032 nM.

On to `CC1(C)COC[C@H]1n1c(Cc2cc(F)c(-c3ccnc(OCc4ccc(C(F)(F)F)cc4)n3)cc2F)nc2ccc(C(=O)O)cc21` [Example 537, (S)-2-(2,5-difluoro-4-(2-((4-(trifluoromethyl)benzyl)oxy)pyrimidin-4-yl)benzyl)-1-(4,4-dimethyltetrahydrofuran-3-yl)-1H-benzo[d]imidazole-6-carboxylic acid], for which it took 0.121 nM to reach a half-maximal effect (EC50). In turn, `N#Cc1ccc(COc2cccc(-c3cc(F)c(Cc4nc5ccc(C(=O)O)cc5n4[C@H]4COCC45CC5)cc3F)n2)c(F)c1` (single isomer, unassigned) [Example 259] had an EC50 of 0.578 nM. Consider `CC1(C)COC[C@H]1n1c(Cc2cc(F)c(-c3cccc(OCc4ccc(C#N)cc4F)n3)cc2F)nc2c(Cl)cc(C(=O)O)cc21` [Example 130, (S)-4-chloro-2-(4-(6-((4-cyano-2-fluorobenzyl)oxy)pyridin-2-yl)-2,5-difluorobenzyl)-1-(4,4-dimethyltetrahydrofuran-3-yl)-1H-benzo[d]imidazole-6-carboxylic Acid], for which the EC50 was 0.038 nM. `Cn1cccc(COc2cccc(-c3cc(F)c(Cc4nc5ccc(C(=O)O)cc5n4[C@@H]4COCC4(C)C)cc3F)n2)c1=O` [Example 426, (S)-2-(2,5-difluoro-4-(6-((1-methyl-2-oxo-1,2-dihydropyridin-3-yl)methoxy)pyridin-2-yl)benzyl)-1-(4,4-dimethyltetrahydrofuran-3-yl)-1H-benzo[d]imidazole-6-carboxylic acid]: the concentration giving a half-maximal response (EC50) was determined as 1.48 nM.

With `N#Cc1ccc(COc2cccc(-c3cc(F)c(Cc4nc5ccc(C(=O)O)cc5n4C4COC5CC4C5)cc3F)n2)c(F)c1` (stereo not drawn) [Example 68, 1-(2-oxabicyclo[3.1.1]heptan-4-yl)-2-(4-(6-((4-cyano-2-fluorobenzyl)oxy)pyridin-2-yl)-2,5-difluorobenzyl)-1H-benzo[d]imidazole-6-carboxylic Acid], the 50% effective concentration (EC50) stood at 0.33 nM.

In the case of `Cn1cc(-c2ccc(COc3cccc(-c4cc(F)c(Cc5nc6ccc(C(=O)O)cc6n5[C@@H]5COCC5(C)C)cc4F)n3)cn2)nn1` [Example 550, (S)-2-(2,5-difluoro-4-(6-((6-(1-methyl-1H-1,2,3-triazol-4-yl)pyridin-3-yl)methoxy)pyridin-2-yl)benzyl)-1-(4,4-dimethyltetrahydrofuran-3-yl)-1H-benzo[d]imidazole-6-carboxylic acid], the response was half-maximal at 0.066 nM (EC50).

`CC1(C)COC[C@H]1n1c(Cc2cc(F)c(-c3cccc(OCc4ccc(Cl)cc4F)n3)cc2F)nc2cc(O)c(C(=O)O)cc21` [Example 400, (S)-2-(4-(6-((4-chloro-2-fluorobenzyl)oxy)pyridin-2-yl)-2,5-difluorobenzyl)-1-(4,4-dimethyltetrahydrofuran-3-yl)-5-hydroxy-1H-benzo[d]imidazole-6-carboxylic acid]: the EC50 was determined as 0.44 nM. Then `CC1(C)COC[C@H]1n1c(Cc2cc(F)c(-c3cccc(OCc4ccc(Cl)cc4Cl)n3)cc2F)nc2ccc(C(=O)O)cc21` [Example 399, (S)-2-(4-(6-((2,4-dichlorobenzyl)oxy)pyridin-2-yl)-2,5-difluorobenzyl)-1-(4,4-dimethyltetrahydrofuran-3-yl)-1H-benzo[d]imidazole-6-carboxylic acid], with 0.124 nM. The molecule `CC1(C)COC[C@H]1n1c(Cc2cc(F)c(-c3ccc(F)c(OCc4ccc(-n5ccnn5)cc4F)n3)cc2F)nc2ccc(C(=O)O)cc21` [Example 163, (S)-2-(2,5-difluoro-4-(5-fluoro-6-((2-fluoro-4-(1H-1,2,3-triazol-1-yl)benzyl)oxy)pyridin-2-yl)benzyl)-1-(4,4-dimethyltetrahydrofuran-3-yl)-1H-benzo[d]imidazole-6-carboxylic Acid] yielded an EC50 of 0.039 nM.

For the molecule `CC1(C)COC[C@H]1n1c(Cc2cc(F)c(-c3cc(C(F)F)cc(OCc4ccc(Cl)cc4F)n3)cc2F)nc2ccc(C(=O)O)cc21` [Example 447, (S)-2-(4-(6-((4-chloro-2-fluorobenzyl)oxy)-4-(difluoromethyl)pyridin-2-yl)-2,5-difluorobenzyl)-1-(4,4-dimethyltetrahydrofuran-3-yl)-1H-benzo[d]imidazole-6-carboxylic acid], a half-maximal effect (EC50) was put at 1.39 nM. Compared with the last molecule, the EC50 is about 36-fold higher.

With `CC(Cn1c(Cc2cc(F)c(-c3cccc(OCc4ccc(C#N)cc4F)n3)cc2F)nc2ccc(C(=O)O)cc21)OC(F)F` (stereo not drawn) [Example 22, 2-(4-(6-((4-cyano-2-fluorobenzyl)oxy)pyridin-2-yl)-2,5-difluorobenzyl)-1-(2-(difluoromethoxy)propyl)-1H-benzo[d]imidazole-6-carboxylic Acid], the 50% effective concentration (EC50) came out at 0.72 nM.
